From the supplement of paper PMC4862054

Tests used:
Details in all cases: incubation time: 72 h
[1] = system: BT-474; test: normalised response (% of control), CellTiter-Glo; higher = more viable cells (100 = DMSO, 0 = benzethonium chloride kill control)
Summary of the method: (§1)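 Every value is a normalised signal taken at one concentration of a dilution series. Compound was placed in 384-well plates at 5 concentrations in 10-fold steps over a compound-specific 10,000-fold range, and 20 µl of breast cancer cell suspension was seeded onto it. After 72 h, CellTox Green fluorescence (485/520 nm) was measured first and CellTiter-Glo luminescence second, following 10 min at room temperature. Each plate was scaled to 0.1 % DMSO (100) and a positive kill control (0).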

[2] = system: BT-549; test: as above
Summary of the method: as §1

[3] = system: CAL-120; test: as above
Summary of the method: as §1

[4] = system: CAL-148; test: as above
Summary of the method: as §1

[5] = system: CAL-51; test: as above
Summary of the method: as §1

[6] = system: CAL-85-1; test: as above
Summary of the method: as §1

[7] = system: DU-4475; test: as above
Summary of the method: as §1

[8] = system: HCC1143; test: as above
Summary of the method: as §1

[9] = system: HCC1599; test: as above
Summary of the method: as §1

[10] = system: HCC1937; test: as above
Summary of the method: as §1

[11] = system: HDQ-P1; test: as above
Summary of the method: as §1

[12] = system: Hs578T; test: as above
Summary of the method: as §1

[13] = system: MCF-10A; test: as above
Summary of the method: as §1

[14] = system: MDA-MB-231; test: as above
Summary of the method: as §1

[15] = system: MDA-MB-436; test: as above
Summary of the method: as §1

[16] = system: MDA-MB-453; test: as above
Summary of the method: as §1

[17] = system: MDA-MB-468; test: as above
Summary of the method: as §1

[18] = system: MFM-223; test: as above
Summary of the method: as §1

[19] = system: SK-BR-3; test: as above
Summary of the method: as §1

[20] = system: BT-474; test: normalised viability (% of control), CellTiter-Blue; higher = more viable cells (100 = DMSO, 0 = benzethonium chloride kill control)
Summary of the method: (§2)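 Breast cancer cell lines were treated for 72 h in 384-well format and measured by CellTiter-Blue fluorescence at 560/590 nm. Results were normalised per plate to vehicle (100) and a positive kill control (0). The entry is normalised viability at a single listed concentration of the series.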

[21] = system: BT-549; test: as above
Summary of the method: as §2

[22] = system: CAL-120; test: as above
Summary of the method: as §2

[23] = system: CAL-148; test: as above
Summary of the method: as §2

[24] = system: CAL-51; test: as above
Summary of the method: as §2

[25] = system: CAL-85-1; test: as above
Summary of the method: as §2

[26] = system: DU-4475; test: as above
Summary of the method: as §2

[27] = system: HCC1143; test: as above
Summary of the method: as §2

[28] = system: HCC1599; test: as above
Summary of the method: as §2

[29] = system: HCC1937; test: as above
Summary of the method: as §2

[30] = system: HDQ-P1; test: as above
Summary of the method: as §2

[31] = system: Hs578T; test: as above
Summary of the method: as §2

[32] = system: MDA-MB-231; test: as above
Summary of the method: as §2

[33] = system: MDA-MB-436; test: as above
Summary of the method: as §2

[34] = system: MDA-MB-453; test: as above
Summary of the method: as §2

[35] = system: MDA-MB-468; test: as above
Summary of the method: as §2

[36] = system: MFM-223; test: as above
Summary of the method: as §2

[37] = system: SK-BR-3; test: as above
Summary of the method: as §2

CC(C)C[C@H](NC(=O)[C@H](Cc1ccccc1)NC(=O)c1cnccn1)B(O)O [Bortezomib] (0.1 nM)
normalised response [1]: 98.6% | normalised response [2]: 91.5% | normalised response [3]: 102% | normalised response [4]: 95.7% | normalised response [5]: 90.9% | normalised response [6]: 95.6% | normalised response [7]: 103% | normalised response [8]: 100% | normalised response [9]: 95.9% | normalised response [10]: 96.2% | normalised response [11]: 93.6% | normalised response [12]: 104% | normalised response [13]: 113% | normalised response [14]: 101% | normalised response [15]: 93.4% | normalised response [16]: 103% | normalised response [17]: 89.8% | normalised response [18]: 103% | normalised response [19]: 101% | normalised viability [20]: 75.1% | normalised viability [21]: 82.3% | normalised viability [22]: 98.8% | normalised viability [23]: 104% | normalised viability [24]: 97.3% | normalised viability [25]: 104% | normalised viability [26]: 129% | normalised viability [27]: 98.8% | normalised viability [28]: 122% | normalised viability [29]: 82.9% | normalised viability [30]: 92.2% | normalised viability [31]: 96.4% | normalised viability [32]: 91.9% | normalised viability [33]: 103% | normalised viability [34]: 101% | normalised viability [35]: 91.8% | normalised viability [36]: 101% | normalised viability [37]: 88.8%

Cn1c(=O)c(F)c(Nc2ccc(I)cc2F)c2c(=O)n(C[C@@H](O)CO)cnc21 [TAK-733] (0.1 nM)
normalised response [1]: 103% | normalised response [2]: 91.8% | normalised response [3]: 98% | normalised response [4]: 104% | normalised response [5]: 74% | normalised response [6]: 96.6% | normalised response [7]: 99.4% | normalised response [8]: 102% | normalised response [9]: 94.3% | normalised response [10]: 100% | normalised response [11]: 97.1% | normalised response [12]: 101% | normalised response [13]: 114% | normalised response [14]: 105% | normalised response [15]: 96.2% | normalised response [16]: 115% | normalised response [17]: 102% | normalised response [18]: 108% | normalised response [19]: 111% | normalised viability [20]: 68.7% | normalised viability [21]: 101% | normalised viability [22]: 87.1% | normalised viability [23]: 105% | normalised viability [24]: 101% | normalised viability [25]: 90.7% | normalised viability [26]: 112% | normalised viability [27]: 101% | normalised viability [28]: 73.2% | normalised viability [29]: 88.7% | normalised viability [30]: 120% | normalised viability [31]: 128% | normalised viability [32]: 105% | normalised viability [33]: 105% | normalised viability [34]: 111% | normalised viability [35]: 95.8% | normalised viability [36]: 99.9% | normalised viability [37]: 97.9%

COc1c(C)cnc(Cn2cnc3c(Cl)nc(N)nc32)c1C [BIIB021] (1 nM)
normalised response [1]: 99.1% | normalised response [2]: 95.6% | normalised response [3]: 103% | normalised response [4]: 106% | normalised response [5]: 74% | normalised response [6]: 98.1% | normalised response [7]: 103% | normalised response [8]: 97.6% | normalised response [9]: 124% | normalised response [10]: 103% | normalised response [11]: 95.6% | normalised response [12]: 106% | normalised response [13]: 104% | normalised response [14]: 112% | normalised response [15]: 99% | normalised response [16]: 106% | normalised response [17]: 101% | normalised response [18]: 102% | normalised response [19]: 93.6% | normalised viability [20]: 91.7% | normalised viability [21]: 97.7% | normalised viability [22]: 76.8% | normalised viability [23]: 96.5% | normalised viability [24]: 101% | normalised viability [25]: 78.1% | normalised viability [26]: 87.7% | normalised viability [27]: 82.9% | normalised viability [28]: 143% | normalised viability [29]: 93.4% | normalised viability [30]: 86.4% | normalised viability [31]: 105% | normalised viability [32]: 76.3% | normalised viability [33]: 102% | normalised viability [34]: 93.9% | normalised viability [35]: 94.6% | normalised viability [36]: 80.8% | normalised viability [37]: 75.8%

COc1ncc(-c2ccc3nccc(-c4ccnnc4)c3c2)cc1NS(=O)(=O)c1ccc(F)cc1F (0.1 nM)
normalised response [1]: 101% | normalised response [2]: 101% | normalised response [3]: 98.4% | normalised response [4]: 97.9% | normalised response [5]: 112% | normalised response [6]: 98.1% | normalised response [7]: 99.8% | normalised response [8]: 106% | normalised response [9]: 92.1% | normalised response [10]: 98.2% | normalised response [11]: 99.8% | normalised response [12]: 103% | normalised response [13]: 120% | normalised response [14]: 104% | normalised response [15]: 97.7% | normalised response [16]: 125% | normalised response [17]: 100% | normalised response [18]: 111% | normalised response [19]: 108% | normalised viability [20]: 115% | normalised viability [21]: 108% | normalised viability [22]: 81% | normalised viability [23]: 99.6% | normalised viability [24]: 93.7% | normalised viability [25]: 90.2% | normalised viability [26]: 108% | normalised viability [27]: 89.1% | normalised viability [28]: 83.8% | normalised viability [29]: 100% | normalised viability [30]: 103% | normalised viability [31]: 112% | normalised viability [32]: 92% | normalised viability [33]: 113% | normalised viability [34]: 94.3% | normalised viability [35]: 101% | normalised viability [36]: 91.4% | normalised viability [37]: 86.9%
